Results on ten molecules are retold here after ChEMBL document CHEMBL5506043, “A β-Carboline Derivate PAD4 Inhibitor Reshapes Neutrophil Phenotype and Improves the Tumor Immune Microenvironment against Triple-Negative Breast Cancer” (J Med Chem, 2024).

Series [1] deals with T1, Protein-arginine deiminase type-3 (Homo sapiens) (UniProt Q9ULW8).
T1 sequence (whole entry): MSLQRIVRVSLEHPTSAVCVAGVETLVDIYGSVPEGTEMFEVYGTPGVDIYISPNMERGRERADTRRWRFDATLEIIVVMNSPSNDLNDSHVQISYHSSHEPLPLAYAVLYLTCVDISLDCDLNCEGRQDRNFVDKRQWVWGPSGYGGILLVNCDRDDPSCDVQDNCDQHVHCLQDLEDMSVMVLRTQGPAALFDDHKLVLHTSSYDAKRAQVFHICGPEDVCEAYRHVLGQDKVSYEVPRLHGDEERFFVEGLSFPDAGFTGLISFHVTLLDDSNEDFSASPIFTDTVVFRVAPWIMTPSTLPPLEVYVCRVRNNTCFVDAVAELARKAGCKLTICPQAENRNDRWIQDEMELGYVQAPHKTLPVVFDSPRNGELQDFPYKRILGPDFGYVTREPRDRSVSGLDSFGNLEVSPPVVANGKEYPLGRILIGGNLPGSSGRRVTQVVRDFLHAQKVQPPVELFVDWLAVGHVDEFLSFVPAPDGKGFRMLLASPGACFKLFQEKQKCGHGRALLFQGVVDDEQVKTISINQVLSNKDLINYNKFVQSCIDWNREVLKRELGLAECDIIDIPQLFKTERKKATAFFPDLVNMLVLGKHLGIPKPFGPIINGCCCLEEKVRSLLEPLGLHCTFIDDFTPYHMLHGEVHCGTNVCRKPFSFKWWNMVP
The series is described as follows: Inhibition of 6His-tagged recombinant human PAD3 expressed in Escherichia coli BL21-DE3 pLysS cells using N-benzoylated arginine ethyl ester hydrochloride as substrate assessed as ratio of Kinact/Ki preincubated for 30 mins followed by substrate addition and measured after 15 mins by […] assay. The conditions noted are these: time 45.0 min.

Series [2] can be described thus: Cytotoxicity against human MCF-10A cells assessed as inhibition of cell growth incubated for 48 hrs by MTT assay. In kind it is toxicity, cell-based. For orientation: Tetrazolium dyes change colour on reduction, which living cells bring about.
The next series relates to Neutrophil. In words: In vivo inhibition of PAD4 in female BALB/c mouse implanted with mouse orthotopic 4T1-Luc cells assessed as inhibition of neutrophil extracellular traps formation in tumor at 10 mg/kg, iv administered via tail vein every 2 days for 9 times for 17 days by immunohistochemical staining based analysis. In kind it is functional, organism-based. The conditions noted are these: time 17.0 day.

The nature of series [3]: Tmax in male Sprague-Dawley rat at 3.5 mg/kg, iv by LC-MS/MS analysis. In kind it is ADME, organism-based. The conditions noted are these: in vivo.
A short description of series [4]: AUC (0 to t) in male Sprague-Dawley rat at 3.5 mg/kg, iv by LC-MS/MS analysis. In kind it is ADME, organism-based. The conditions noted are these: in vivo.
Series [5] is described as follows: Terminal half life in male Sprague-Dawley rat at 3.5 mg/kg, iv by LC-MS/MS analysis. In kind it is ADME, organism-based. To be noted: in vivo.
Series [6] is described as follows: Cmax in male Sprague-Dawley rat at 3.5 mg/kg, iv by LC-MS/MS analysis. In kind it is ADME, organism-based. The conditions noted are these: in vivo.
In another series the test system is MDA-MB-468. The series is described as follows: Antiproliferative activity against human MDA-MB-468 cells assessed as inhibition of cell growth incubated for 48 hrs by MTT assay. It is filed as functional, cell-based. To be noted: MDA-MB-468, 48 h.
The target in series [7] is Protein-arginine deiminase type-2 (Homo sapiens, UniProt Q9Y2J8). The series is described as follows: Inhibition of PAD2 (unknown origin) using Nalpha-benzoyl-L-arginine ethyl ester as substrate preincubated for 60 mins followed by substrate addition and measured after 90 mins by colorimetric analysis.
The target in series [8] is Protein-arginine deiminase type-4 (Mus musculus) (UniProt Q9Z183). The series is described as follows: Inhibition of PAD4 in BALB/c mouse bone marrow neutrophils assessed as reduction in neutrophil extracellular traps formation at 2 uM preincubated for 2 hrs followed by calcium ionophore A23187 addition and measured after 2 hrs by Hoechst 33342/Ly6G staining based laser confocal microscopic analysis. It is filed as tissue-based. The conditions noted are these: time 4.0 hrs.

A short description of series [9]: Toxicity in female BALB/c mouse implanted with mouse orthotopic 4T1-Luc cells assessed as reduction in kidney weight at 10 mg/kg, iv administered via tail vein every 2 days for 9 times for 17 days. In kind it is organism-based. The conditions noted are these: in vivo, 408 h, time 17 day.
Series [10] is described as follows: Toxicity in female BALB/c mouse implanted with mouse orthotopic 4T1-Luc cells assessed as reduction in liver weight at 10 mg/kg, iv administered via tail vein every 2 days for 9 times for 17 days. It is filed as organism-based. To be noted: in vivo, 408 h, time 17 day.
For the next series, the system named is Mus musculus. The series is described as follows: In vivo inhibition of PAD4 in female BALB/c mouse implanted with mouse orthotopic 4T1-Luc cells assessed as inhibition of histone H3 citrullination in tumor at 10 mg/kg, iv administered via tail vein every 2 days for 9 times for 17 days by immunohistochemical staining based analysis. To be noted: time 17.0 day. It is filed as functional, organism-based.

Series [11] addresses Protein-arginine deiminase type-4 (Homo sapiens, UniProt Q9UM07). In words: Inhibition of PAD4 (unknown origin) using Nalpha-benzoyl-L-arginine ethyl ester as substrate preincubated for 60 mins followed by substrate addition and measured after 90 mins by colorimetric analysis.
The nature of series [12]: AUC (0 to infinity) in male Sprague-Dawley rat at 3.5 mg/kg, iv by LC-MS/MS analysis. It is filed as ADME, organism-based. The conditions noted are these: in vivo.
Series [13] addresses Protein-arginine deiminase type-4 (Mus musculus) (UniProt Q9Z183). In words: Inhibition of PAD4 in BALB/c mouse bone marrow neutrophils assessed as reduction in histone H3 citrullination at 2 uM preincubated for 2 hrs followed by calcium ionophore A23187 addition and measured after 2 hrs by Hoechst 33342/Ly6G staining based laser confocal microscopic analysis. The conditions noted are these: Neutrophil, time 4.0 hrs.

Series [14] is described as follows: Toxicity in female BALB/c mouse implanted with mouse orthotopic 4T1-Luc cells assessed as reduction in body weight at 10 mg/kg, iv administered via tail vein every 2 days for 9 times for 17 days and measured every 2 days. It is filed as organism-based. The conditions noted are these: in vivo, 408 h, time 17 day.
In the next series the test system is 4T1. The series is described as follows: Antiproliferative activity against mouse 4T1 cells assessed as inhibition of cell growth incubated for 48 hrs by MTT assay. In kind it is functional, cell-based. The conditions noted are these: 4T1, 48 h.
Series [15] is described as follows: Antitumor activity against mouse orthotopic 4T1-Luc cells implanted in female BALB/c mouse assessed as tumor growth inhibition at 10 mg/kg, iv administered via tail vein every 2 days for 9 times for 17 days and measured every 2 days relative to control. It is filed as functional. To be noted: 408 h, time 17 day, read-out: TGI.
Series [16] can be described thus: Toxicity in female BALB/c mouse implanted with mouse orthotopic 4T1-Luc cells assessed as reduction in body weight at 1.16 mg/kg, iv administered via tail vein every 2 days for 9 times for 17 days and measured every 2 days. It is filed as organism-based. The conditions noted are these: in vivo, 408 h, time 17 day.
The nature of series [17]: Antitumor activity against mouse orthotopic 4T1-Luc cells implanted in female BALB/c mouse assessed as tumor growth inhibition at 1.16 mg/kg, iv administered via tail vein every 2 days for 9 times for 17 days and measured every 2 days relative to control. It is filed as functional. To be noted: 408 h, time 17 day, read-out: TGI.

Where a name gives a salt, the structure may show the parent alone. Active and inactive are the calls of the source. The calls are words filed in the database; no cut-off is given here.

Sequence of Protein-arginine deiminase type-2 (Q9Y2J8 whole entry): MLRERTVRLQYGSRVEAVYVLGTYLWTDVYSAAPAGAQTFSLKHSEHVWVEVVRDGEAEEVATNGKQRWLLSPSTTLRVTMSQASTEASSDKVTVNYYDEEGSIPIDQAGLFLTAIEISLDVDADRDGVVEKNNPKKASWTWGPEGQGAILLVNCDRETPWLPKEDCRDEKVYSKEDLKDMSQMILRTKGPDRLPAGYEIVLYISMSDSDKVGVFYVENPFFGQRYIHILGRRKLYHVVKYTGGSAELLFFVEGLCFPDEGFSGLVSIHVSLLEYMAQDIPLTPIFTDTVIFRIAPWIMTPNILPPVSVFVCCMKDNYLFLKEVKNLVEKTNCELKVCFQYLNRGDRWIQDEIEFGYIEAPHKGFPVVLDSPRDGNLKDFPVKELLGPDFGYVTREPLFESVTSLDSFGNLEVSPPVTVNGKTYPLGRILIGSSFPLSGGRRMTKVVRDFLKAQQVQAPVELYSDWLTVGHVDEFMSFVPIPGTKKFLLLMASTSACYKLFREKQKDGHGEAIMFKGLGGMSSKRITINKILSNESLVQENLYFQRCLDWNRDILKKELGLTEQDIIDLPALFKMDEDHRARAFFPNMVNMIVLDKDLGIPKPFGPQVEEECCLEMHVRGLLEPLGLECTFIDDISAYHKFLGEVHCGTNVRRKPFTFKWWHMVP
Sequence of Protein-arginine deiminase type-4 (Q9UM07 whole entry): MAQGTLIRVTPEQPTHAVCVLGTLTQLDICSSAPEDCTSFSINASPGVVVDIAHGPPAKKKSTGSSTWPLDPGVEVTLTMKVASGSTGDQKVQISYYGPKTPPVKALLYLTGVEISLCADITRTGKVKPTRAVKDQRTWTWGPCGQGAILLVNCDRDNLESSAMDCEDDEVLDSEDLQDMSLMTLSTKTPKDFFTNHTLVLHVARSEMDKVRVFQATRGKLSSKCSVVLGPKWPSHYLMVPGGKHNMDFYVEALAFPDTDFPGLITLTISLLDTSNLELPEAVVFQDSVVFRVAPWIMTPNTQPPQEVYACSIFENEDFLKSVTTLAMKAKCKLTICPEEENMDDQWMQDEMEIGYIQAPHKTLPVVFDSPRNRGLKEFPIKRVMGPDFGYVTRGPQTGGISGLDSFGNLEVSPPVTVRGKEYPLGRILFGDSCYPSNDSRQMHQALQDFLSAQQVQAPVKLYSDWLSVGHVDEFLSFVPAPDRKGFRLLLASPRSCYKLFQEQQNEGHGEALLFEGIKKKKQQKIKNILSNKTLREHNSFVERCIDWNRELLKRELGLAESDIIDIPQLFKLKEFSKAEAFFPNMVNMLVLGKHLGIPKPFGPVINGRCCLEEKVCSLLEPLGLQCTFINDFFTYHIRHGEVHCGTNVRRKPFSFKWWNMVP
Sequence of Protein-arginine deiminase type-4 (Mus musculus) (Q9Z183 whole entry): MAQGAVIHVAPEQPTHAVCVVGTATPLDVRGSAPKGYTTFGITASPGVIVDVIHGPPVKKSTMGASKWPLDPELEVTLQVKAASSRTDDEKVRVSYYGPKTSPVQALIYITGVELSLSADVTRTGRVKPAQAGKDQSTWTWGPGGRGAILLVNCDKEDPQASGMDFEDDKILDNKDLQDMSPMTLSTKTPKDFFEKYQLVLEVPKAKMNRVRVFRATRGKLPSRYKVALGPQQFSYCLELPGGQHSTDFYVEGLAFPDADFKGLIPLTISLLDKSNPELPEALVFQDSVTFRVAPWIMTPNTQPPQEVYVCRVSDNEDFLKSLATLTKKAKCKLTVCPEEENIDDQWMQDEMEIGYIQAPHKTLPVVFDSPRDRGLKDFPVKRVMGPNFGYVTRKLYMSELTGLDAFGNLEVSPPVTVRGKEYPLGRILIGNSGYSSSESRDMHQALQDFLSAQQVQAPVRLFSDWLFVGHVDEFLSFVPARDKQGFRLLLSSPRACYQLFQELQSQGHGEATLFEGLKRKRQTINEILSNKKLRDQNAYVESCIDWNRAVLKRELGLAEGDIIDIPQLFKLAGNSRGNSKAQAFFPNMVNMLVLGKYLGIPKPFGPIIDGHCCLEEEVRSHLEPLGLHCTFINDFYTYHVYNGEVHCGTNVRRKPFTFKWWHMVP

Consider `N=C(CCl)NCCCC1NC(=O)N(Cc2cccc(-c3ccccc3Cl)c2)C1=O` (stereo unspecified), for which the Ratio in series [1] was 15600 min⁻¹ M⁻¹.
Consider `CN(C)c1ccc2cc(C(=O)N[C@@H](CCCNC(=N)CCl)C(=O)NCc3ccccc3)ccc2c1`, for which the IC50 at 48 h in series [2] amounted to 4.3 µM. Moreover, the inhibition result (in the series with Neutrophil; in [8]; in the series with Mus musculus; in series [13]) was “Active” throughout. The Tmax in series [3] is 4.8 min. The same molecule registered an AUC(0-t) in [4] of 14.9 ng·h/mL. In addition, the “beta t1/2” value in [5] came out at 7.8 min. In series [6], this molecule came in with a Cmax of 251.2 ng/mL. The IC50 was found to be 5.16 µM in the series with MDA-MB-468, 5.28 µM in series [7], 3.54 µM in series [11] and 7.34 µM in the series with 4T1. Moreover, the Activity entry in [9] was “Toxic”; in [10], “Toxic”; in series [14], “Non-Toxic”. In addition, in series [12], the area under the curve (AUC) worked out at 17214.17 ng·h/mL. For the same molecule, the inhibition in vivo at 10 mg/kg in series [15] came out at 36.2%.
Consider `CCCCCCCCCc1nc(C(=O)N[C@@H](CCCNC(=N)CCl)C(=O)NCc2ccccc2)cc2c1[nH]c1ccccc12`, for which the IC50 at 48 h in [2] came to 14.3 µM. Also, the IC50 amounted to 7.2 µM in the series on MDA-MB-468, 16.8 µM in series [7], 14 µM in series [11] and 12.2 µM in the series on 4T1.
The like results for `N=C(CCl)NCCC[C@H](NC(=O)c1cc2c(cn1)[nH]c1ccccc12)C(=O)NCc1ccccc1` were, in that order, 29.4 µM, 14.3 µM, 2.73 µM, 1.76 µM and 23.5 µM.
With `COc1cccc2c1C(=O)c1c(O)c3c(c(O)c1C2=O)C[C@@](O)(C(=O)CO)C[C@@H]3O[C@H]1C[C@H](N)[C@H](O)[C@H](C)O1` [DOXORUBICIN HYDROCHLORIDE], the Activity entry in series [16] is given as “Non-Toxic”. For the same molecule, in series [17], the inhibition in vivo at 1.16 mg/kg came to 54.6%.
With `N=C(CCl)NCCC[C@H](NC(=O)c1cc2c([nH]c3ccccc32)c(-c2ccncc2)n1)C(=O)NCc1ccccc1`, in series [2], the IC50 at 48 h is 83.8 µM. For the same molecule, the half-inhibitory concentration (IC50) in the series on MDA-MB-468 was determined as 85.3 µM; in [7] it was 4.65 µM; in series [11] it was 3.43 µM; with 4T1 it was 45.2 µM.
The like results for `N=C(CCl)NCCC[C@H](NC(=O)c1cc2c([nH]c3ccccc32)c(-c2cccc([N+](=O)[O-])c2)n1)C(=O)NCc1ccccc1` were, in that order, 7.22 µM, 13.8 µM, over 10 µM, 2.03 µM and over 100 µM.
In the case of `N=C(CCl)NCCC[C@H](NC(=O)c1cc2c([nH]c3ccccc32)c(-c2cccs2)n1)C(=O)NCc1ccccc1`, the half-inhibitory concentration (IC50) at 48 h in [2] was determined as 8.03 µM. The half-inhibitory concentration (IC50) with MDA-MB-468 is 3.99 µM; in series [7], 3.77 µM; in series [11] it was 1.32 µM; in the series on 4T1, 7.64 µM.
Turning to `N=C(CCl)NCCC[C@H](NC(=O)c1cc2c([nH]c3ccccc32)c(-c2nc3ccccc3[nH]2)n1)C(=O)NCc1ccccc1`, the IC50 at 48 h in series [2] was 3 µM. The IC50 is 3.18 µM in the series with MDA-MB-468, over 10 µM in series [7], 9.3 µM in series [11] and 1.44 µM in the series on 4T1.
On to `N=C(CCl)NCCC[C@H](NC(=O)c1c[nH]c2ccccc12)C(=O)NCc1ccccc1`, for which the half-maximal inhibitory concentration (IC50) at 48 h in [2] was determined as 120 µM. In addition, the IC50 in the series with MDA-MB-468 stood at 117 µM; in series [7] it was 0.35 µM; in series [11], 0.7 µM; in the series with 4T1, 99.9 µM.

By IC50 is commonly meant the midpoint of a concentration-inhibition curve. As a reminder, the Tmax is the time at which the peak concentration occurs. Usually AUC(0-t) stands for exposure summed from dosing to a finite time, without extrapolation to infinity. In general, Cmax refers to the maximum level reached in the sampled fluid or tissue. By AUC is commonly meant the area under the concentration-time curve, a measure of exposure. The low end stands for low exposure, the high end for high exposure.
